From US12070513B2, “PSMA-binding agents and uses thereof” (The Johns Hopkins University, priority 2008, dated 2024)
Values joined by “and” are separate entries in the source; they are usually repeats but may differ in a detail not shown here. Equal values may be shown once. “Also recorded” adds a separate entry of the source.

Legend:
[1] = tested on: PC-3 PIP (PSMA+) and PC-3 flu (PSMA−) xenograft-bearing SCID mice; assay: Ex vivo biodistribution in tumor-bearing mice
[2] = biological target: NAALADase (PSMA) prepared from LNCaP cell lysates (Homo sapiens (Human), UniProt Q04609); assay: NAALADase (radiometric) assay, NAAG hydrolysis; assay type: biochemical; conditions: [3H]NAAG 30 nM
[3] = biological target: PSMA, lysates of LNCaP cell extracts (Homo sapiens (Human), UniProt Q04609); assay: fluorescence-based PSMA inhibition assay (Amplex Red glutamic acid kit); assay type: biochemical; conditions: 4 μM NAAG
PSMA, lysates of LNCaP cell extracts, sequence (Q04609 whole entry): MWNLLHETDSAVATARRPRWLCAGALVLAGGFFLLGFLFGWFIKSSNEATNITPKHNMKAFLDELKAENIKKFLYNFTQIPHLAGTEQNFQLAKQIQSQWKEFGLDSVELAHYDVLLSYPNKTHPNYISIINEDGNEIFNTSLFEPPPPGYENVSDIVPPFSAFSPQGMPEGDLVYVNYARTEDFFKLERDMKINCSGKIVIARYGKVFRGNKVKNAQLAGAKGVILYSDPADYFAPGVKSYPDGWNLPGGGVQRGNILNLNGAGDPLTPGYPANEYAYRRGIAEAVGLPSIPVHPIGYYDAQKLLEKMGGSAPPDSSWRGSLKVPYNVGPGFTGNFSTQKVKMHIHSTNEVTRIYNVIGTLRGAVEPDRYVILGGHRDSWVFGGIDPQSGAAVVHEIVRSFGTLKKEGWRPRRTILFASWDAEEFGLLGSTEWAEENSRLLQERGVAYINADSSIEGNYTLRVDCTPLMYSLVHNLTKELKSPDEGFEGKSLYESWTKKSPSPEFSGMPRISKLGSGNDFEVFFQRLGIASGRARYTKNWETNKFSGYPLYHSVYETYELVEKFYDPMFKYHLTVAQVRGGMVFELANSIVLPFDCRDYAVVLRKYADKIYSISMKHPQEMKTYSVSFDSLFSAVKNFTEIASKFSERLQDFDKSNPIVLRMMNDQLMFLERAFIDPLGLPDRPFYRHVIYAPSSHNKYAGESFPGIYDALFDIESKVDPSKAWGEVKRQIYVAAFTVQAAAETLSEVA

[4] = Stability of radiolabeled product after synthesis; assay type: physicochemical; conditions: after radiosynthesis and HPLC
Description: Synthesis of 2-[3-(1-carboxy-5-{4-[N′-(4-[^18F]fluoro-benzylidene)-hydrazino]-benzoylamino}-pentyl)-ureido]-pentanedioic acid (^18F]12). 4-[^18F]fluorobenzaldehyde was synthesized by using a known procedure (Nuclear Medicine and Biology 33 (2006) 677-683). To the crude DMSO solution of 4-[^18F]fluorobenzaldehyde was added 1-2 mg of compound 14, 0.2 mL of 50 mM KH2PO4. The vial was closed and heated at 90° C. for […]. The reaction mixture was then purified by HPLC (Ecomosphere C18 10μ, 250×10 mm, H2O/CH3CN/TFA [70/30/0.1], 4 mL/min). The radiochemical yield (decay corrected and based on starting [^18F] fluoride, n=2) was 30-55%. […] The specific activity of final compound was not determined.

[5] = tested on: PC-3 PIP and PC-3 flu xenografts in SCID mouse; assay: PET-CT imaging of [18F]6; assay type: in vivo; conditions: 94-120 min p.i., PC-3 PIP and PC-3 flu tumors
Description: Compound [^18F]6. In vivo PET-CT: A SCID mouse bearing subcutaneous PC-3 PIP and PC-3 flu xenografts was anesthetized using 3% isoflurane in oxygen for induction and 1.5% isoflurane in oxygen at 0.8 L/min flow for maintenance and positioned prone on the gantry of a GE eXplore Vista small animal PET scanner (GE Healthcare, Milwaukee, Wis.). The mouse was injected intravenously with 7.4 MBq (200 μCi) of [^18F]6 followed by image acquisition using the following protocol: The images were acquired as a pseudodynamic scan, i.e., a sequence of successive whole-body images acquired in three bed positions for a total of 90 min. The dwell time at each position was 5 minutes, such that a given bed position (or mouse organ) was revisited every 15 min. An energy window of 250-700 keV was used. Images were reconstructed using the FORE/2D-OSEM method (2 iterations, 16 subsets) and included corrections for radioactive decay, scanner dead time and scattered radiation.

[6] = tested on: PC-3 PIP and PC-3 flu xenografts in SCID mouse; assay: SPECT-CT imaging of [125I]3 in PCa tumor models; assay type: in vivo; conditions: 4 h p.i., PC-3 PIP and PC-3 flu tumors
Description: At 4 and 6 h p.i. the mouse was anesthetized with isoflurane and maintained under 1% isoflurane in oxygen. The mouse was positioned on the X-SPECT (Gamma Medica, Northridge, Calif.) gantry and was scanned using two low energy, high-resolution pinhole collimators (Gamma Medica) rotating through 360° in 6° increments for 45 seconds per increment. All gamma images were reconstructed using Lunagem software (Gamma Medica, Northridge, Calif.) Immediately following SPECT acquisition, the mice were then scanned by CT (X-SPECT) over a 4.6 cm field-of-view using a 600 μA, 50 kV beam. […] Data were reconstructed using the Ordered Subsets-Expectation Maximization (OS-EM) algorithm.

O=C(O)CCC(NC(=O)NC(CCCCNC(=O)c1ccc(F)cc1)C(=O)O)C(=O)O (stereo not drawn) [Compound 6, 2-{3-[1-Carboxy-5-(4-fluoro-benzoylamino)-pentyl]-ureido}-pentanedioic acid]
PIP:flu ratio ([1]; 5 h p.i.): 31
Ki [2]: 0.256 nM
Ki [3]: 0.194 nM

O=C(O)CCC(NC(=O)NC(CCCCNC(=O)c1ccc(NN=Cc2ccc(F)cc2)cc1)C(=O)O)C(=O)O (stereo not drawn) [Compound 12, 2-[3-(1-carboxy-5-{4-[N′-(4-fluoro-benzylidene)-hydrazino]-benzoylamino}-pentyl)-ureido]-pentanedioic acid]
stability of compound after preparation [4]: decomposed soon after been made

O=C(O)CCC(NC(=O)NC(CCCCNC(=O)c1ccc([18F])cc1)C(=O)O)C(=O)O (stereo not drawn) [[^18F]6, 2-{3-[1-carboxy-5-(4-[^18F]fluoro-benzoylamino)-pentyl]-ureido}-pentanedioic acid]
PC-3 PIP tumor uptake ([1]; 30 min p.i.): 8.58±3.09 % ID/g and 8.6 ± 3.1 % ID/g
PC-3 flu tumor uptake ([1]; 30 min p.i.): 0.8 ± 0.3 % ID/g
PIP tumor:bladder ratio ([1]; 30 min p.i.): (1)
PIP tumor:blood ratio ([1]; 30 min p.i.): (3)
PIP tumor:heart ratio ([1]; 30 min p.i.): (11)
PIP tumor:kidney ratio ([1]; 30 min p.i.): (0.1)
PIP tumor:large intestine ratio ([1]; 30 min p.i.): (7)
PIP tumor:liver ratio ([1]; 30 min p.i.): (1)
PIP tumor:lung ratio ([1]; 30 min p.i.): (5)
PIP tumor:muscle ratio ([1]; 30 min p.i.): (4)
PIP tumor:pancreas ratio ([1]; 30 min p.i.): (11)
PIP tumor:small intestine ratio ([1]; 30 min p.i.): (5)
PIP tumor:spleen ratio ([1]; 30 min p.i.): (0.7)
PIP tumor:stomach ratio ([1]; 30 min p.i.): (11)
PIP:flu ratio ([1]; 30 min p.i.): 11
bladder uptake ([1]; 30 min p.i.): 6.8 ± 3.5 % ID/g
blood uptake ([1]; 30 min p.i.): 2.5 ± 1.7 % ID/g
heart uptake ([1]; 30 min p.i.): 0.8 ± 0.1 % ID/g
kidney uptake ([1]; 30 min p.i.): 72.05±3.19 % ID/g and 72 ± 3 % ID/g
large intestine uptake ([1]; 30 min p.i.): 1.2 ± 0.8 % ID/g
liver uptake ([1]; 30 min p.i.): 8.7 ± 1.8 % ID/g
lung uptake ([1]; 30 min p.i.): 1.7 ± 0.3 % ID/g
muscle uptake ([1]; 30 min p.i.): 2.4 ± 3.1 % ID/g
pancreas uptake ([1]; 30 min p.i.): 0.8 ± 0.1 % ID/g
small intestine uptake ([1]; 30 min p.i.): 1.7 ± 0.7 % ID/g
spleen uptake ([1]; 30 min p.i.): 12.67±0.36 % ID/g and 12.7 ± 0.4 % ID/g
stomach uptake ([1]; 30 min p.i.): 0.8 ± 0.1 % ID/g
PC-3 PIP tumor uptake ([1]; 60 min p.i.): 6.4 ± 0.9 % ID/g
PC-3 flu tumor uptake ([1]; 60 min p.i.): 0.3 ± 0.05 % ID/g
PIP tumor:bladder ratio ([1]; 60 min p.i.): (0.4)
PIP tumor:blood ratio ([1]; 60 min p.i.): (9)
PIP tumor:heart ratio ([1]; 60 min p.i.): (35)
PIP tumor:kidney ratio ([1]; 60 min p.i.): (0.1)
PIP tumor:large intestine ratio ([1]; 60 min p.i.): (13)
PIP tumor:liver ratio ([1]; 60 min p.i.): (1)
PIP tumor:lung ratio ([1]; 60 min p.i.): (13)
PIP tumor:muscle ratio ([1]; 60 min p.i.): (13)
PIP tumor:pancreas ratio ([1]; 60 min p.i.): (21)
PIP tumor:small intestine ratio ([1]; 60 min p.i.): (11)
PIP tumor:spleen ratio ([1]; 60 min p.i.): (1)
PIP tumor:stomach ratio ([1]; 60 min p.i.): (26)
PIP:flu ratio ([1]; 60 min p.i.): 21
bladder uptake ([1]; 60 min p.i.): 17 ± 21 % ID/g
blood uptake ([1]; 60 min p.i.): 0.7 ± 0.5 % ID/g
heart uptake ([1]; 60 min p.i.): 0.2 ± 0.02 % ID/g
kidney uptake ([1]; 60 min p.i.): 48 ± 5 % ID/g
large intestine uptake ([1]; 60 min p.i.): 0.5 ± 0.1 % ID/g
liver uptake ([1]; 60 min p.i.): 5.8 ± 0.6 % ID/g
lung uptake ([1]; 60 min p.i.): 0.5 ± 0.1 % ID/g
muscle uptake ([1]; 60 min p.i.): 0.5 ± 0.7 % ID/g
pancreas uptake ([1]; 60 min p.i.): 0.3 ± 0.1 % ID/g
small intestine uptake ([1]; 60 min p.i.): 0.6 ± 0.2 % ID/g
spleen uptake ([1]; 60 min p.i.): 7.2 ± 1.6 % ID/g
stomach uptake ([1]; 60 min p.i.): 0.25 ± 0.1 % ID/g
PC-3 PIP tumor uptake ([1]; 2 h p.i.): 3.7 ± 1.2 % ID/g
PC-3 flu tumor uptake ([1]; 2 h p.i.): 0.25 ± 0.1 % ID/g
PIP tumor:bladder ratio ([1]; 2 h p.i.): (0.3)
PIP tumor:blood ratio ([1]; 2 h p.i.): (9)
PIP tumor:heart ratio ([1]; 2 h p.i.): (25)
PIP tumor:kidney ratio ([1]; 2 h p.i.): (0.1)
PIP tumor:large intestine ratio ([1]; 2 h p.i.): (19)
PIP tumor:liver ratio ([1]; 2 h p.i.): (0.3)
PIP tumor:lung ratio ([1]; 2 h p.i.): (4)
PIP tumor:muscle ratio ([1]; 2 h p.i.): (19)
PIP tumor:pancreas ratio ([1]; 2 h p.i.): (25)
PIP tumor:small intestine ratio ([1]; 2 h p.i.): (12)
PIP tumor:spleen ratio ([1]; 2 h p.i.): (1)
PIP tumor:stomach ratio ([1]; 2 h p.i.): (13)
PIP:flu ratio ([1]; 2 h p.i.): 15
bladder uptake ([1]; 2 h p.i.): 11 ± 8 % ID/g
blood uptake ([1]; 2 h p.i.): 0.4 ± 0.2 % ID/g
heart uptake ([1]; 2 h p.i.): 0.15 ± 0.05 % ID/g
kidney uptake ([1]; 2 h p.i.): 29 ± 12 % ID/g
large intestine uptake ([1]; 2 h p.i.): 0.2 ± 0.1 % ID/g
liver uptake ([1]; 2 h p.i.): 11.7 ± 7.0 % ID/g
lung uptake ([1]; 2 h p.i.): 1.0 ± 0.9 % ID/g
muscle uptake ([1]; 2 h p.i.): 0.2 ± 0.1 % ID/g
pancreas uptake ([1]; 2 h p.i.): 0.15 ± 0.03 % ID/g
small intestine uptake ([1]; 2 h p.i.): 0.3 ± 0.2 % ID/g
spleen uptake ([1]; 2 h p.i.): 4.4 ± 1.2 % ID/g
stomach uptake ([1]; 2 h p.i.): 0.3 ± 0.1 % ID/g
PC-3 PIP tumor uptake ([1]; 5 h p.i.): 3.5 ± 2.3 % ID/g
PC-3 flu tumor uptake ([1]; 5 h p.i.): 0.1 ± 0.1 % ID/g
PIP tumor:bladder ratio ([1]; 5 h p.i.): (0.7)
PIP tumor:blood ratio ([1]; 5 h p.i.): (117)
PIP tumor:heart ratio ([1]; 5 h p.i.): (117)
PIP tumor:kidney ratio ([1]; 5 h p.i.): (0.3)
PIP tumor:large intestine ratio ([1]; 5 h p.i.): (6)
PIP tumor:liver ratio ([1]; 5 h p.i.): (3.5)
PIP tumor:lung ratio ([1]; 5 h p.i.): (35)
PIP tumor:muscle ratio ([1]; 5 h p.i.): (35)
PIP tumor:pancreas ratio ([1]; 5 h p.i.): (70)
PIP tumor:small intestine ratio ([1]; 5 h p.i.): (35)
PIP tumor:spleen ratio ([1]; 5 h p.i.): (3.5)
PIP tumor:stomach ratio ([1]; 5 h p.i.): (88)
PIP:flu ratio ([1]; 5 h p.i.): 35
bladder uptake ([1]; 5 h p.i.): 5.2 ± 8.9 % ID/g
blood uptake ([1]; 5 h p.i.): 0.03 ± 0.00 % ID/g
heart uptake ([1]; 5 h p.i.): 0.03 ± 0.01 % ID/g
kidney uptake ([1]; 5 h p.i.): 14 ± 9 % ID/g
large intestine uptake ([1]; 5 h p.i.): 0.6 ± 0.6 % ID/g
liver uptake ([1]; 5 h p.i.): 1.0 ± 0.6 % ID/g
lung uptake ([1]; 5 h p.i.): 0.1 ± 0.1 % ID/g
muscle uptake ([1]; 5 h p.i.): 0.1 ± 0.1 % ID/g
pancreas uptake ([1]; 5 h p.i.): 0.05 ± 0.03 % ID/g
small intestine uptake ([1]; 5 h p.i.): 0.1 ± 0.04 % ID/g
spleen uptake ([1]; 5 h p.i.): 1.0 ± 0.6 % ID/g
stomach uptake ([1]; 5 h p.i.): 0.04 ± 0.02 % ID/g
uptake pattern in PET-CT [5]: easily observed within PIP tumor, none within flu tumor, high renal uptake and a modest degree of liver uptake; also recorded: uptake within the PSMA+ PIP tumor only

O=C(O)CCC(NC(=O)NC(CCCCNC(=O)c1ccc([125I])cc1)C(=O)O)C(=O)O (stereo not drawn) [[^125I]3, 2-{3-[1-carboxy-5-(4-[^125I]iodo-benzoylamino)-pentyl]-ureido}-pentanedioic acid]
radiopharmaceutical uptake in SPECT-CT image [6]: intense uptake in the PC-3 PIP and absence of uptake in the PC-3 flu tumor; also recorded: uptake within the PSMA+ PIP tumor only
